From publication PMC12380724, “The air pollutant phenanthrene disrupts calcium cycling and alters repolarization in female sheep ventricular cardiomyocytes” (Physiological Reports, 2025)

Molecular target: T1, ERG channel (rapid delayed rectifier potassium channel, IKr) (Ovis aries, UniProt A0ACI6Q0V2)
T1 construct: gene KCNH2; native IKr in isolated left ventricular myocytes
T1 sequence (A0ACI6Q0V2 1-1163): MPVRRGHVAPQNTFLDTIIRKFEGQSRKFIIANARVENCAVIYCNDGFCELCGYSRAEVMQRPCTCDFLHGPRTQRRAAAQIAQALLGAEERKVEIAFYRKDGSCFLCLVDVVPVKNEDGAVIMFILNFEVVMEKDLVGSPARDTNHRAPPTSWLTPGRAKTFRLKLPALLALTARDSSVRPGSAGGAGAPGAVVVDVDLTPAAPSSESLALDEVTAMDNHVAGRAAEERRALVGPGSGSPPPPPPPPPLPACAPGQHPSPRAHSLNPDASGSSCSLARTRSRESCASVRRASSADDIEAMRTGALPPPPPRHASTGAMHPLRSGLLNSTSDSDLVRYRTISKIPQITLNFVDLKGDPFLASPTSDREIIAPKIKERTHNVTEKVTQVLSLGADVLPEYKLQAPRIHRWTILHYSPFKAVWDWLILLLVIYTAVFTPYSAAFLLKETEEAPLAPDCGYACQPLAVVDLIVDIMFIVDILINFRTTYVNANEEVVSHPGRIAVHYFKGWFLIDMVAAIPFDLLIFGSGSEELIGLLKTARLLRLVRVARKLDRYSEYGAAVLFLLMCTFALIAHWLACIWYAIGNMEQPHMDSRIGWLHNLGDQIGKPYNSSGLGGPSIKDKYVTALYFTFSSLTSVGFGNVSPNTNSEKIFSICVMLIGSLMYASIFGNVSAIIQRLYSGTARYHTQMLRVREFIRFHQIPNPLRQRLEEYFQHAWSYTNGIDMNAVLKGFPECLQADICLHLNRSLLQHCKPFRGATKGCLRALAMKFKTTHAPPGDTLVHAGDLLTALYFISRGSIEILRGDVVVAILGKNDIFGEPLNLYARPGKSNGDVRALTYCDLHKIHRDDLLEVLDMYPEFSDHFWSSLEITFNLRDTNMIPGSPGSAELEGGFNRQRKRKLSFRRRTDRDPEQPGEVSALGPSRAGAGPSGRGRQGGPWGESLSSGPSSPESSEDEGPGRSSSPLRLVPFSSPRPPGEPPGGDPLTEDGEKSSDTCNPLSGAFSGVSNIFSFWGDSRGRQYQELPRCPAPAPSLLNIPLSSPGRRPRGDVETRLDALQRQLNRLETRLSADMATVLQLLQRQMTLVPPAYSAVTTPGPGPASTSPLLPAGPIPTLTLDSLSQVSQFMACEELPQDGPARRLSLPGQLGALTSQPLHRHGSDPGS
Assay: whole-cell patch-clamp of native IKr tail current
Assay type: cell-based

Work on `c1ccc2c(c1)ccc1ccccc12` [Phe, phenanthrene] yielded an inhibition at 25 µM of 55.8%.
